Reference: patent US6043223A, “Enhanced opening of abnormal brain tissue capillaries” (priority 1997, dated 2000)
Where a SMILES comes first, the peptide text is derived from it.

Columns and labels:
[1] = rat, in vivo
Source text: (§1) Seven or eight days after tumor implantation, the rats were anesthetized with intra-peritoneal urethane (1 g/kg) and a polyethylene catheter was inserted retrograde through the external carotid artery to the common carotid artery bifurcation ipsilateral to the tumor. The external carotid artery and pterygopalatine artery were then ligated. Both femoral veins were cannulated for administration of drugs or tracers. One femoral artery was cannulated to monitor systemic blood pressure and the other femoral artery was cannulated to withdraw arterial blood. Body temperature was maintained at 37° C. and arterial blood gases, blood pressure, and hematocrit were monitored.

RG2 gliomas = assay: Regional permeability (Ki) by quantitative autoradiography in rats with implanted RG2 gliomas; assay type: in vivo, rat; details: for effect on tumor permeability 20 minutes after stopping the intracarotid infusion (in words): [14C]-dextran
Experimental: (§2) RG2 and C6 are cell lines derived from rat gliomas induced by ethylnitrosourea (17,18). The glioma cells were kept frozen until use, then thawed and maintained in a monolayer culture in F12 medium with 10% calf serum. The rats were anesthetized with intra-peritoneal ketamine (50 mg/kg). Glial tumors were implanted into the right hemisphere by intracerebral injections of 1×10^5 glioma cells in 5 μl F12 medium (1.2% methylcellulose) by a Hamilton syringe. The coordinates used were 5 mm lateral to the bregma, and 4.5 mm deep to the dural surface.
as §1
The tumor-implanted rats were grouped by tracers and by tumor types. Bradykinin (Sigma Chemical Co., St. Louis, Mo.) or PBS (control) was infused into the right carotid artery at a rate of 53.3 μl/minute (10 μg/kg/minute) for 15 minutes. In regional permeability studies, 5 minutes after the start of the intracarotid infusion, […] of [^14 C]-AIB (MW 103, Dupon-New England Nuclear Co., Boston, Mass.) or [^14 C]-Dextran (MW 70,000, Dupon-New England Nuclear Co.) was injected as an intravenous bolus. A peristaltic withdrawal pump was used to withdraw femoral arterial blood at a constant rate of […] immediately after the injection of the tracer for the determination of serum radioactivity. Fifteen minutes after the start of intracarotid infusions, the animals were killed by decapitation and the brains were rapidly removed and frozen.
Bradykinin, zaprinast or bradykinin mixed with zaprinast was infused into the right carotid artery at a rate of 53.3 μl/minute for 15 minute. The rate of infusion of bradykinin and zaprinast was 10 μg/kg/minute and 1.67 mg/kg/minute ([…]) respectively. Injection of tracer, withdrawing of arterial blood, and other protocols were in the same manner as described above.
The duration of the effect of the intracarotid bradykinin with or without zaprinast infusion in RG2 glioma was examined at three different periods by changing the time of [^14 C]-dextran injection relative to intracarotid infusion of bradykinin with or without zaprinast.
The frozen brains were mounted onto pedestals with M-1 embedding matrix (Lipshaw, Pittsburgh, Pa.) and 20 μm coronal sections were cut with a cryotome. The sections were thawmounted onto cover slips and autoradiograms were generated by co-exposing the sections on Kodak XAR-5 film with tissue calibrated [^14 C]-standards (Amersham, Arlington Heights, Ill.) for 2 weeks. The sequential section was stained with hematoxylin for the correlation of areas of histologically verified tumor areas with autoradiograms. The regional radioactivity was measured in the tumor, BST (areas within 2 mm distance from the border of the tumor), right cortex (ipsilateral cortex), left cortex (contralateral cortex), right white matter, left white matter, right basal ganglia, and left basal ganglia. Quantitative analysis of the regional radioactivity was performed using a computer (Power Macintosh 7100) and the software, Image 1.55 (NIH).
For quantitative autoradiographic examination, the regional permeability in the brain and tumor tissues were expressed by the unidirectional transfer constant, Ki value (μl/g/minute) which was determined as described in References 21, 22, 23 and 24). […]

[2] = Solubility of zaprinast in saline; assay type: physicochemical
Experimental: The bradykinin/bradykinin analog and zaprinast are preferably infused in the form of a pharmaceutical solution having a […] phosphate buffered saline solution as the carrier. The concentration of bradykinin in the solution is 10-40 μg/ml with the preferred concentration of zaprinast being on the order of 1 to 10 mg/ml for carotid artery administration. For intravenous administration, the concentration of bradykinin/bradykinin analog is preferably between about 15 μg/ml to 50 mg/ml with the preferred concentration of zaprinast being on the order of 2 mg/ml to 15 mg/ml. Zaprinast is not soluble directly in saline. Accordingly, it is preferred that the pharmaceutical solution be prepared by dissolving zaprinast in 1 M sodium hydroxide to form a concentrated solution of approximately 100 to 500 mg/ml zaprinast. This concentrated solution is then dissolved into phosphate buffered saline (PBS) to the final desired concentration. Bradykinin or the bradykinin analog is then added to the solution to form the final pharmaceutical preparation. The relative concentrations within the pharmaceutical preparation are adjusted as set forth above to provide a solution which is suitable for either carotid artery infusion or intravenous administration.

C6 gliomas = assay: Regional permeability (Ki) by quantitative autoradiography in rats with implanted C6 gliomas; assay type: in vivo, rat
Experimental: as §2, §1
The tumor-implanted rats were grouped by tracers and by tumor types. Bradykinin (Sigma Chemical Co., St. Louis, Mo.) or PBS (control) was infused into the right carotid artery at a rate of 53.3 μl/minute (10 μg/kg/minute) for 15 minutes. […] A peristaltic withdrawal pump was used to withdraw femoral arterial blood at a constant rate of […] immediately after the injection of the tracer for the determination of serum radioactivity. […]
The frozen brains were mounted onto pedestals with M-1 embedding matrix (Lipshaw, Pittsburgh, Pa.) and 20 μm coronal sections were cut with a cryotome. […] The regional radioactivity was measured in the tumor, BST (areas within 2 mm distance from the border of the tumor), right cortex (ipsilateral cortex), left cortex (contralateral cortex), right white matter, left white matter, right basal ganglia, and left basal ganglia. Quantitative analysis of the regional radioactivity was performed using a computer (Power Macintosh 7100) and the software, Image 1.55 (NIH).
For quantitative autoradiographic examination, the regional permeability in the brain and tumor tissues were expressed by the unidirectional transfer constant, Ki value (μl/g/minute) which was determined as described in References 21, 22, 23 and 24).
For all tracers, statistical comparison of regional Ki values or blood volume between same regions with/without bradykinin or zaprinast were determined using analysis of variance (ANOVA) followed by non-parametric analysis of Mann-Whitney's U test. […]

brain tumor capillaries = details: intracarotid infusion; previous studies (6-9); cited from earlier work

blood gas parameters or hemoglobin concentration (in words) [1]	solubility in saline (in words) [2]	Compound	bradykinin effect on tumor permeability (Ki) at 10 minutes after infusion (in words) (RG2 gliomas; RG2 tumor, FIG. 5 time course)	effect on tumor permeability 20 minutes after stopping the intracarotid infusion (in words) (RG2 gliomas; RG2 tumor, time course study)	Ki values in RG2 tumors for both tracers (in words) (RG2 gliomas; zaprinast alone, intracarotid, [14C]-dextran and [14C]-AIB)	Ki in tumors for [14C]-AIB (C6 gliomas; C6 tumor, intracarotid infusion 15 minutes (bradykinin 10 μg/kg/minute, zaprinast 1.67 mg/kg/minute)) [µL/g/min]	Ki values in C6 tumors for [14C]-dextran, increase with zaprinast alone (in words) (C6 gliomas; C6 tumor, zaprinast alone, intracarotid)	transport (Ki) of either tracer in other normal brain / non-tumor regions (in words) (RG2 gliomas; RG2-bearing rats, [14C]-dextran and [14C]-AIB)	Ki for AIB in BST (brain within 2 mm of the tumor) (RG2 gliomas; RG2, brain surrounding tumor, intracarotid infusion 15 minutes) [µL/g/min]	Ki for dextran in BST (in words) (RG2 gliomas; RG2, brain surrounding tumor, vs control)	Ki in tumors for [14C]-dextran, fold higher than in controls (RG2 gliomas; RG2 tumor, bradykinin 10 μg/kg/minute intracarotid vs PBS control) [fold]	Ki in tumors for [14C]-AIB (MW 103) (RG2 gliomas; RG2 tumor, intracarotid infusion 15 minutes (bradykinin 10 μg/kg/minute, zaprinast 1.67 mg/kg/minute), mean±SD) [µL/g/min]	transfer constant, Ki, in tumors for [14C]-dextran (MW 70,000) (RG2 gliomas; RG2 tumor, intracarotid infusion 15 minutes (bradykinin 10 μg/kg/minute, zaprinast 1.67 mg/kg/minute), tracer i.v. 5 minutes after start, mean±SD) [µL/g/min]	[14C]-dextran uptake into the tumor (Ki) 10 minutes after stopping the intracarotid infusion (RG2 gliomas; RG2 tumor, time course study) [µL/g/min]	transport (Ki) for either tracer in non-tumor regions (in words) (C6 gliomas; C6-bearing rats, [14C]-dextran and [14C]-AIB)	Ki in tumors for [14C]-dextran, fold higher than in controls (C6 gliomas; C6 tumor, bradykinin intracarotid vs PBS control) [fold]	permeability in brain tumor capillaries vs normal brain capillaries (in words) (brain tumor capillaries)
did not change	not soluble	CCCOc1ccccc1-c1nc2nn[nH]c2c(=O)[nH]1 [zaprinast, 2-(2-propyloxyphenyl)-8-azapurin-6-one]	significantly prolonged	negligible	did not increase	31.4	not										
		NC(N)=NCCC[C@H](NC(=O)[C@H](Cc1ccccc1)NC(=O)[C@@H]1CCCN1C(=O)[C@H](CO)NC(=O)[C@H](Cc1ccccc1)NC(=O)CNC(=O)[C@@H]1CCCN1C(=O)[C@@H]1CCCN1C(=O)[C@@H](N)CCCN=C(N)N)C(=O)O [bradykinin] (H-RPPGFSPFR-OH)		diminished				did not increase	5.31 ± 1.50	not significantly increased	8.4	26.46 ± 2.64	14.33 ± 2.96	3.89 ± 0.74	did not increase	3.1	
		CCCCC/C=C\C\C=C/C=C/C=C/[C@@H](SC[C@H](NC(=O)CC[C@H](N)C(=O)O)C(=O)NCC(=O)O)[C@@H](O)CCCC(=O)O [LTC4, leukotriene C4]															selectively increases
